For this test, the system named is Plasmodium falciparum. Description: GSK_TCMDC: Inhibition of Plasmodium falciparum 3D7 in whole erythrocytes, using parasite LDH activity as an index of growth. In kind it is functional, organism-based.

Structures are written as SMILES. “And” between values parts separate entries of the source, which are not always exact repeats. Equal values may be shown once.

Where the note is “Plasmodium falciparum, 3D7”, `O=C(Nc1ccc(C(F)(F)F)cc1)N[C@H]1CCN(CCCCCNC(=O)C2CC2c2ccc(Cl)c(Cl)c2)C1` (stereo partly specified) showed an XC50 of 1100 nM. In the case of `COc1ccc2nccc([C@@H](O)CN3CCC(NC(=O)Cc4ccc(Br)c5ccccc45)CC3)c2c1`, for the setting “Plasmodium falciparum, 3D7”, the XC50 was 820 nM.

Where the note is “Plasmodium falciparum, 3D7”, `CC(C)c1ccc(NC(=O)c2cccc(CN3CCCN(CC4CCCCC4)CC3)c2)cc1` had an XC50 of 710 nM. On the same count and under the same terms, the value for `O=c1cc(NCCCNCc2ccc(Cl)c(Cl)c2)[nH]c2ccc(C(F)(F)F)cc12` was 524 nM; that for `CC1(C(=O)Nc2ccc([N+](=O)[O-])cc2O)CC2c3ccccc3C1c1ccccc12` (stereo unspecified) was 715 nM; that for `Oc1ccccc1CN(CCCN(Cc1ccccn1)Cc1ccccc1O)Cc1ccccn1` was 1060 nM.

The compound `COc1ccccc1C1CC(c2ccccc2)=NN1C(=O)c1ccccc1` (stereo unspecified) yielded an XC50 (Plasmodium falciparum, 3D7) of 296 nM. Compound `CC(C)CC1(C(=O)OC(C)(C)C)CC(C(=O)OC(C)(C)C)C(c2cccs2)N1C(=O)c1ccc(C(C)(C)C)cc1` (stereo unspecified) showed an XC50 (Plasmodium falciparum, 3D7) of 137 nM. Same read-out and setting: for `CC(C)Cn1c(Sc2ccc(C#N)c([N+](=O)[O-])c2)nnc1-c1ccc(N(C)C)cc1` the value was 220 nM; for `O=C(NCc1cccc(F)c1)c1ccc(O)c(-c2cc(Cl)cc(Cl)c2)c1`, 559 nM; for `Oc1ccc(Br)cc1-c1nc2ccc(Cl)cc2nc1-c1cc(Br)ccc1O`, 789 nM. The same measure, in the same setting: for `CCOc1ccc(-c2nonc2NC(=O)c2ccc(OC)cc2)cc1OCC` the value was 822 nM; for `Cc1cccc2nc(-c3cccc(-c4cccc(NC(=O)c5cn(C)c(=O)n5C)c4)c3)[nH]c12`, 505 nM; for `CC(C)Sc1ccc(Cl)cc1CON1C(=N)N=C(N)NC1(C)C`, 3.2 nM.

On to `CN1CCN(Cc2ccc(-c3ccc4c(Nc5cc(O)c(Cl)cc5F)ccnc4c3)o2)CC1`, for which the XC50 (Plasmodium falciparum, 3D7) came out at 110 nM. The same measure, in the same setting: the value for `COc1ccc(Cn2c(Nc3cccc(C(F)(F)F)c3)nc3cc(C(=O)NCCN4CCCC4)cnc32)cc1Cl` was 915 nM; that for `COc1ccc(NC(=O)/C=C/c2ccccc2Cl)cc1OCCN1CCC(NCc2ccccc2)CC1` was 352 nM. Regarding `CC(C)c1ccc(Nc2nc(NCCc3c[nH]cn3)nc(NCc3ccccc3)n2)cc1`, for the setting “Plasmodium falciparum, 3D7”, the XC50 turned out to be 687 nM. With `COc1ccc2ncc(F)c(CCN3CCC(NCc4cc(F)c5c(c4)OCCO5)CC3)c2n1`, the XC50 (Plasmodium falciparum, 3D7) worked out at 346 nM. With `Cc1cccc(C(=O)Nc2ccnc(N3CCC(N(C)Cc4ccc(C#N)cc4)CC3)c2)c1`, where the note is “Plasmodium falciparum, 3D7”, the XC50 is 912 nM. The same measure, in the same setting: the value for `Cc1ccc2c(C3=CCN(CCCCC4(C)C(=O)Nc5ccccc54)CC3)c(C)[nH]c2c1` (stereo unspecified) was 374 nM; that for `CN(C)c1nc(NN=Cc2cc(Cl)ccc2O)nc(Nc2ccc(F)cc2)n1` was 837 nM. For the setting “Plasmodium falciparum, 3D7”, `CCCCCCCCc1c(C)nc(C)c(Br)c1O` displayed an XC50 of 824 nM. As to `CSc1ccc2ccccc2c1CCNCCCCNCCc1c(SC)ccc2ccccc12`, the XC50 (Plasmodium falciparum, 3D7) was determined as 408 nM.

`Cc1ccccc1C1CCN(C2CCC(NC(=O)/C=C/c3cc(F)ccc3C(F)(F)F)CC2)CC1` (stereo unspecified): the XC50 (Plasmodium falciparum, 3D7) is 953 nM. As for `CCCCCN1CCC(NS(=O)(=O)c2cccc(C(=O)Nc3ccc(C(F)(F)F)cc3)c2)C1` (stereo unspecified), the XC50 (Plasmodium falciparum, 3D7) was 798 nM. Still for that read-out and setting: for `CC(O)C1CCCCN1C(=O)c1cccc(-c2ccc(-c3nc4ccccc4[nH]3)s2)c1` (stereo unspecified) the value was 798 nM; for `NC(=O)c1cc2nc(Nc3ccc(F)cc3)nc(Nc3ccc(S(N)(=O)=O)cc3)c2[nH]1`, 795 nM; for `CN1CCN(Cc2cccc(-c3ccc4c(Nc5cc(O)c(Cl)cc5F)ccnc4c3)c2)CC1`, 770 nM. Still for that read-out and setting: for `COc1cc2nc(NCCN3CCOCC3)n3nc(-c4ccccc4)nc3c2cc1OC` the value was 215 nM; for `CCOc1ccc(C(=O)Nc2ccc(-c3nc4ccccc4[nH]3)cc2)cc1[N+](=O)[O-]`, 591 nM. On the same count and under the same terms, the value for `COc1ccc(-c2cc(C(=O)N[C@@H](CC3CCCCC3)C(=O)NCCN3CCCCC3)ccc2O)cc1` was 950 nM; that for `COc1ccc(OC)c(-c2ccc(O)c(CNCC(C)c3ccccc3)c2)c1` (stereo unspecified) was 933 nM; that for `COc1cc(C)nc2ccc(NC(=O)c3ccc(C(=O)Nc4ccc5nc(C)cc(OC)c5c4)cc3)cc12` was 63.3 nM. With `Cc1c[nH]c2cc(/C=C/C(=O)NC3CCC(CCN4CCc5ccc(C#N)cc5CC4)CC3)ccc12` (stereo unspecified), the XC50 (Plasmodium falciparum, 3D7) stood at 801 nM. On the same count and under the same terms, for `CC1CN(c2cnn(Cc3cccc(NC(=O)Nc4ccc(F)cc4[N+](=O)[O-])c3)c(=O)c2Cl)CC(C)N1` (stereo unspecified) the value was 866 nM; for `O=C(/C=C/c1ccc(Cl)c(Cl)c1)NCCCCCN1CCC(NC(=O)c2ccc(F)cc2)CC1`, 706 nM. As to `Cc1cc(CNC(=O)c2ccc(-c3ccc(-c4nc5cc(C(F)(F)F)ccc5[nH]4)s3)cc2)on1`, the XC50 (Plasmodium falciparum, 3D7) worked out at 732 nM. Same read-out and setting: for `Cc1ccnc(NC(c2cccc(OCc3ccccc3)c2)c2ccc3cccnc3c2O)c1` (stereo unspecified) the value was 864 nM; for `c1ccc2c(NCCCCCCCCCNc3ccnc4ccccc34)ccnc2c1`, 115 nM; for `Cc1ccc(NC(=O)c2ccc(CN3CCCN(CC4CCCCC4)CC3)cc2)cc1C`, 1020 nM. On the same count and under the same terms, the value for `Cc1ccc2[nH]c3c(NCCCN4CCOCC4)ncnc3c2c1` was 942 nM. Still for that read-out and setting: the value for `OCc1ccc2nc3c(cc2c1)-c1cccc2cccc-3c12` was 664 nM; that for `COc1cccc(-c2cc(C(=O)NC3CCC(N4CCC(c5ccccc5C)CC4)CC3)[nH]n2)c1` (stereo unspecified) was 1120 nM.

`Ic1cc(Nc2ncnc3ccsc23)ccc1OCc1ccccc1` came in with an XC50 (Plasmodium falciparum, 3D7) of 773 nM. Same read-out and setting: for `O=C1c2cc(I)ccc2SC1c1ccccc1` (stereo unspecified) the value was 817 nM. In turn, `CCC(C)c1ccc(Nc2nc(C)cc(N(CC)CCCN3CCCCC3)n2)cc1` (stereo unspecified) displayed an XC50 (Plasmodium falciparum, 3D7) of 332 nM. Still for that read-out and setting: the value for `CCOc1cc(C(=O)N[C@@H](Cc2ccccc2)[C@H](O)CNCc2cc(OC)cc(OC)c2)cc(N2CCCS2(=O)=O)c1` was 748 nM; that for `Oc1cccc(-c2nc(-c3ccccc3)c(-c3ccc(Oc4ccc(-c5[nH]c(-c6cccc(O)c6)nc5-c5ccccc5)cc4)cc3)[nH]2)c1` was 855 nM.

Where the note is “Plasmodium falciparum, 3D7”, `CCCc1ccc(NC(=O)c2cccc(CN3CCCN(Cc4cccc(C#N)c4)CC3)c2)cc1` came in with an XC50 of 976 nM. Same read-out and setting: for `O=[N+]([O-])c1cccc(-c2nc(-c3ccc(Br)cc3)[nH]c2-c2ccc(Br)cc2)c1` the value was 759 nM; for `Cc1ccc(CN2CCCN(Cc3cccc(NC(=O)c4ccc(Cl)c(Cl)c4)c3)CC2)cc1`, 902 nM. For `O=C(/C=C/c1ccc(C(F)(F)F)cc1)NC1CCC(CN2CCC(c3c[nH]c4ccccc34)CC2)CC1` (stereo unspecified), the XC50 is 964 nM and 369 nM.

In turn, `c1ccc2c(CNCCCCCCNCc3c(OCC4CC4)ccc4ccccc34)c(OCC3CC3)ccc2c1` showed an XC50 (Plasmodium falciparum, 3D7) of 928 nM. The compound `CCCCCc1cc(O)c2c3c(c(=O)oc2c1)CN(C)CC3` registered an XC50 (Plasmodium falciparum, 3D7) of 121 nM. In turn, `c1ccc2c(CNCCCN3CCN(CCCNCc4c5ccccc5cc5ccccc45)CC3)c3ccccc3cc2c1` registered an XC50 (Plasmodium falciparum, 3D7) of 182 nM. On the same count and under the same terms, for `COc1ccc(-c2ncnc(C(F)(F)F)c2-c2ccc(Cl)cc2)c(O)c1` the value was 805 nM; for `COc1ccc(Cn2c(Nc3cccc(C(F)(F)F)c3)nc3ccc(C(=O)NCCN4CCCC4)cc32)cc1Cl`, 753 nM.

The compound `O=C(NCc1ccc(Cl)c(Cl)c1)c1cccc(C2CCCN(Cc3ccc4[nH]cnc4c3)C2)c1` (stereo unspecified) gave an XC50 (Plasmodium falciparum, 3D7) of 932 nM.

For the compound `N#Cc1cncc(-c2nc3c(N4CCCC(N)C4)cccc3n2CCNCc2ccccc2)c1` (stereo unspecified), the XC50 (Plasmodium falciparum, 3D7) was found to be 768 nM.

In turn, `Cc1ccc(NC(=O)Nc2ccc(Cl)cc2)cc1-c1ccc(C(=O)Nc2ccncc2)cc1` had an XC50 (Plasmodium falciparum, 3D7) of 534 nM. Same read-out and setting: the value for `O=C(NCc1cccc(C(F)(F)F)c1)c1ccc(-c2nc3cc(F)c(F)cc3[nH]2)cc1` was 776 nM; that for `CC(C)CN1C(=O)C(c2ccc(F)c(F)c2)=C(O)C1c1ccccc1` (stereo unspecified) was 185 nM. On the same count and under the same terms, for `COc1cc2nc(N3CCC(CNC(=O)c4ccc(-c5ccc(C(=O)N(C)C)cc5)c(OCCO)c4)CC3)nc(N)c2cc1OC` the value was 730 nM. On the same count and under the same terms, for `COc1ccccc1C(C)NCC(=O)Nc1ccccc1Sc1ccccc1` (stereo unspecified) the value was 1100 nM. In turn, `Cc1cccc2nc(-c3cccc(-c4ccc(NC(=O)c5cccc(C(N)=O)c5)cc4)c3)[nH]c12` returned an XC50 (Plasmodium falciparum, 3D7) of 410 nM.

As for `Cc1csc(-c2nc(NCc3cccnc3)ncc2-c2ccsc2)n1`, the XC50 (Plasmodium falciparum, 3D7) came to 1190 nM. Consider `CC(=O)Nc1cccc(/C=C/C(=O)N2CCC(N3CCCCC3)CC2)c1`, for which the XC50 (Plasmodium falciparum, 3D7) was 1050 nM. Same read-out and setting: the value for `Cc1cc(NCCc2ccccc2)nc(NC(=N)Nc2ccccc2Cl)n1` was 789 nM.

In the case of `Cc1cc(CN2CCC(C(=O)Nc3ccc(-c4nc5ccccc5[nH]4)cc3)CC2)oc1C`, the XC50 (Plasmodium falciparum, 3D7) was 1450 nM. The same measure, in the same setting: for `CC(=O)Oc1c(Cl)c(C)nc(C)c1-c1ccc(Oc2ccc(OC(F)(F)F)cc2)cc1` the value was 96.2 nM; for `CN(C)CCOc1ccc(N2CCN(CCCCNC(=O)c3ccc(NC(=O)c4ccc(Cl)cc4)cc3)CC2)cc1`, 826 nM. Still for that read-out and setting: the value for `Cc1cc(N[C@@H](Cc2ccccc2)C(=O)Nc2ccccc2)nc(Nc2ccccc2)n1` was 1010 nM; that for `O=C(NCC1CCC(C(=O)NCCN2CCCCC2)CC1)c1ccc(O)c(-c2ccc(Cl)c(Cl)c2)c1` (stereo unspecified) was 1170 nM; that for `COc1ccc(-c2cnc3[nH]cc(-c4ccncc4)c3c2)cc1OC` was 126 nM. `CC(C)n1ncc2c(C(=O)N3CCCc4ccccc43)cc(-c3ccccc3)nc21` returned an XC50 (Plasmodium falciparum, 3D7) of 601 nM. In the case of `COc1c(CCNCCCCNCCc2cc(Cl)c3ccccc3c2OC)cc(Cl)c2ccccc12`, the XC50 (Plasmodium falciparum, 3D7) worked out at 168 nM.

In turn, `Cc1c(CNCCCNc2nc3cscc3[nH]2)sc(C(F)F)c1Br` registered an XC50 (Plasmodium falciparum, 3D7) of 936 nM. Same read-out and setting: for `O=c1cc(NCCCNCc2cccc(I)c2)[nH]c2ccccc12` the value was 1020 nM. The compound `COc1ccc(C(C(=O)NC2CCN(C[C@H](O)c3ccnc4ccc(OC)cc34)CC2)N2CCN(c3ccc(Cl)c(Cl)c3)CC2)cc1` (stereo partly specified) came in with an XC50 (Plasmodium falciparum, 3D7) of 204 nM.

`Cc1cc2nc(-c3ccc(OCC(=O)NCc4ccc(C(C)(C)C)cc4)cc3)[nH]c2cc1C` displayed an XC50 (Plasmodium falciparum, 3D7) of 1060 nM. Compound `O=C(NC1CCC(CCN2Cc3cccc(F)c3C2)CC1)c1cccc(-c2cccnc2)c1` (stereo unspecified) had an XC50 (Plasmodium falciparum, 3D7) of 300 nM. `CCN(CC(C)O)C(=O)c1ccc(-c2cccc(-c3nc4cccc(C)c4[nH]3)c2)cc1` (stereo unspecified) had an XC50 (Plasmodium falciparum, 3D7) of 639 nM.

`Cc1[nH]c(C)c(-c2ccc(Oc3ccc(F)cc3)cc2)c(=O)c1Cl` showed an XC50 (Plasmodium falciparum, 3D7) of 50.5 nM. Same read-out and setting: for `N=c1cc(C=Cc2ccc(O)cc2)[nH]c2ccccc12` the value was 993 nM; for `COc1ccc(-c2cccc(NC(=O)c3cccc(Cl)c3)c2)cc1CN1CCCN(C)CC1`, 231 nM.

(Values after ChEMBL document CHEMBL1157539, “Thousands of chemical starting points for antimalarial lead identification” (Nature, 2010).)
